Results reported in patent publication EP3246029A1, “PHARMACEUTICAL COMBINATION OF NINTEDANIB AND CAPECITABINE FOR THE TREATMENT OF COLORECTAL CANCER” (BOEHRINGER INGELHEIM INTERNATIONAL GMBH, priority 2016, dated 2017).

How the values were obtained:
[1] = test system: HT-29 xenografts (human CRC tumor cell line); experiment: in vivo tumor xenograft experiment, subcutaneous HT-29 xenografts (Example A); settings: nude mice, suboptimal doses, 28 days of treatment
Method: In order to analyse the anti-tumor effects of combining the inhibition of tumor angiogenesis by interfering with the VEGFR, FGFR and PDGFR signalling cascades with the established anti-proliferative treatment modality of capecitabine (Xeloda®) in a xenograft model of CRC the following in vivo experiment is performed. Nude mice carrying established subcutaneous HT-29 xenografts (human CRC tumor cell line) are randomized and treated with either nintedanib or capecitabine alone or with the combination of both drugs. After 28 days of treatment the tumors on the control treated mice reach the endpoint and are in average […] in volume. […] TGI = (1−(Xtreated,final−Xtreated,day1)/(Xcontrol,final−Xcontrol,day1))*100% [formula] where X = mean tumor weigh, final is day 28
The weight gain of the mice in the treatment groups in comparison to the weight of the control mice is reduced, but nevertheless well tolerated.

[2] = in adults; cited from earlier work
Caki-1 = experiment: in vivo anti-tumor efficacy, Caki-1 xenograft model; settings: Renal, Caki-1, 100mg/kg/d
PAC-120 = experiment: in vivo anti-tumor efficacy, PAC-120 xenograft model; settings: Prostate (hormone-dependent), PAC-120, 100mg/kg/d
SKOV3 = experiment: in vivo anti-tumor efficacy, SKOV3 xenograft model; settings: Ovarian, SKOV3, 50mg/kg/d
FaDu = experiment: in vivo anti-tumor efficacy, FaDu xenograft model; settings: Head and neck, 100mg/kg/d
HT-29 large tumors = experiment: in vivo anti-tumor efficacy, HT-29 large tumors xenograft model; settings: Colorectal
GS-9L = experiment: in vivo anti-tumor efficacy, GS-9L syngeneic rat tumor model; settings: Glioblastoma, 50mg/kg/d
NCI-H460 = experiment: in vivo anti-tumor efficacy, NCI-H460 xenograft model; settings: Lung (non-small-cell), NCI-H460, 25mg/kg/d
Calu-6 = experiment: in vivo anti-tumor efficacy, Calu-6 xenograft model; settings: Lung (non-small-cell), Calu-6, 50mg/kg/d
HT-29 = experiment: in vivo anti-tumor efficacy, HT-29 xenograft model; settings: Colorectal, HT-29, 100mg/kg/d
Rip-Tag = experiment: in vivo anti-tumor efficacy, Rip-Tag murine transgenic pancreas model

SMILES	TGI value [1]	AUC [2]	Cmax [2]	bioavailability [2]	T/C (Caki-1)	T/C (PAC-120)	T/C (SKOV3)	T/C (FaDu)	Efficacy (HT-29 large tumors)	T/C (GS-9L)	T/C (NCI-H460)	T/C (Calu-6)	T/C (HT-29)	Efficacy (Rip-Tag)
CCCCCOC(=O)Nc1nc(=O)n([C@@H]2O[C@H](C)[C@@H](O)[C@H]2O)cc1F [capecitabine, 5'-deoxy-5-fluoro-N-[(pentyloxy)carbonyl]-cytidine]	50%	5960 ng·h/mL	3900 ng/mL	≈ 100%	–	–	–	–	–	–	–	–	–	–
COC(=O)c1ccc2c(c1)NC(=O)/C2=C(\Nc1ccc(N(C)C(=O)CN2CCN(C)CC2)cc1)c1ccccc1 [nintedanib, 3-Z-[1-(4-(N-((4-methyl-piperazin-1-yl)-methylcarbonyl)-N-methyl-amino)-anilino)-1-phenyl-methylene]-6-methoxycarbonyl-2-indolinone]	35%	–	–	–	T/C 13% @ 100mg/kg/d	T/C 34% @ 100mg/kg/d	T/C 19% @ 50mg/kg/d	T/C 11% @ 100mg/kg/d	tumor volume reduction	T/C 32% @ 50mg/kg/d	T/C 54% @ 25mg/kg/d	T/C 24% @ 50mg/kg/d	T/C 16% @ 100mg/kg/d	interference with tumor formation
